US10093929B2, “Modular RNA regulators and methods” (STC.UNM, priority 2013, dated 2018)

Experiments:
RNase III = conditions: cited from earlier work
[1] = tested on: FKBP12-fusion proteins (GAL4DBD-FKBP, VPAD-FKBP); assay: FK1012-inducible luciferase transcription assay in CHO cells; assay type: cell-based; conditions: 200 nM, 10 hours
Description: Previously, syntheses of FK1012 variants either involve multi-step transformations with 18% overall yields, or a single-step cross metathesis with 50% yield with a 22-hour reaction time. […] Using dithiothreitol (DTT) as the linker, two equivalents of tacrolimus and one equivalent of DTT were coupled under the TEC reaction condition to produce FK1012-DT (Compound 15, FIG. 12) in one step within 15 minutes in quantitative yield (FIG. 12, Scheme (a)). […] For the assay, two DNA constructs were prepared, each one encoding an FKBP12-fusion protein. […]
Cells in 24-well plates were lysed with 100 μL of 1× Passive Lysis Buffer (Promega Corporation, Madison, Wis.) at room temperature for 10 minutes on a shaker. […] 90 μL of Luciferase substrate solution (5 mg of D-luciferin and 7 mg of coenzyme A in 33mL of Luciferase reading buffer, which includes 20 mM tricine, 1.07 mM (MgCO3)4Mg(OH)2.5H2O, 2.67 mM MgSO4, 0.1 mM EDTA, 33.3 mM dithiothreitol and 0.53 mM ATP in water) was added into each well with cell lysates. The signal was read with a 3 s delay and 1 s integration with GLOMAX multi-detection system (Promega Corp., Madison, Wis.). Obtained data were analyzed by KALEIDAGRAPH (Synergy Software, Reading, Pa.).

FKBP12 = FKBP12 (Homo sapiens, UniProt P62942); conditions: cited from earlier work
FKBP12, sequence (P62942 whole entry, species assumed): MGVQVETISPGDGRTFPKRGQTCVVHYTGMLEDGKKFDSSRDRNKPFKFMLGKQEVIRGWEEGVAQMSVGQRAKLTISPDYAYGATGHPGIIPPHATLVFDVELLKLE

O=C1c2ccccc2C(=O)N1O [N-hydroxyphthalimide]
affinity as RNase III inhibitor (RNase III): low affinity

C=CC[C@@H]1/C=C(\C)C[C@H](C)C[C@H](OC)[C@H]2O[C@@](O)(C(=O)C(=O)N3CCCC[C@H]3C(=O)O[C@H](/C(C)=C/[C@@H]3CC[C@@H](O)[C@H](OC)C3)[C@H](C)[C@@H](O)CC1=O)[C@H](C)C[C@@H]2OC [tacrolimus, Tacrolimus]
induction of luciferase (compared to the no drug control) [1]: not observed

CCC(C)(C)C(=O)C(=O)N1CCCC[C@H]1C(=O)O[C@H](CCc1ccc(OC)c(OC)c1)c1cccc(N)c1 [SLF, (1R)-1-(3-aminophenyl)-3-(3,4-dimethoxyphenyl)propyl ester-1-(3,3-dimethyl-1,2-dioxopentyl)-2S-piperidinecarboxylic acid]
decrease of affinity for FKBP12 compared to tacrolimus (FKBP12): 10 fold
